pIC50: −log10 of the molar value. Calls of active or inactive are those of the source. The calls are words filed in the database; no cut-off is given here.
Key:
CDK2/Cyclin A2 = CDK2/Cyclin A2 (Homo sapiens, UniProt P24941); assay: Inhibition of CDK2/Cyclin A2 (unknown origin) preincubated for 10 mins followed by substrate addition and measured after 60 mins in presence of ATP by ADP-Glo reagent based assay; assay type: protein-complex assay
HCC827 [1] = assay: Antiproliferative activity against human HCC827 cells incubated for 72 hrs by MTT assay; assay type: functional, cell-based; conditions: HCC827, 72 h
[2] = molecular target: Receptor-type tyrosine-protein kinase FLT3 (Homo sapiens) (UniProt P36888); assay: Inhibition of FLT3 (unknown origin) at 100 nM preincubated for 10 mins followed by substrate addition and measured after 60 mins in presence of ATP by ADP-Glo reagent based assay relative to control; conditions: time 70.0 min
Receptor-type tyrosine-protein kinase FLT3 (Homo sapiens), sequence (P36888 whole entry): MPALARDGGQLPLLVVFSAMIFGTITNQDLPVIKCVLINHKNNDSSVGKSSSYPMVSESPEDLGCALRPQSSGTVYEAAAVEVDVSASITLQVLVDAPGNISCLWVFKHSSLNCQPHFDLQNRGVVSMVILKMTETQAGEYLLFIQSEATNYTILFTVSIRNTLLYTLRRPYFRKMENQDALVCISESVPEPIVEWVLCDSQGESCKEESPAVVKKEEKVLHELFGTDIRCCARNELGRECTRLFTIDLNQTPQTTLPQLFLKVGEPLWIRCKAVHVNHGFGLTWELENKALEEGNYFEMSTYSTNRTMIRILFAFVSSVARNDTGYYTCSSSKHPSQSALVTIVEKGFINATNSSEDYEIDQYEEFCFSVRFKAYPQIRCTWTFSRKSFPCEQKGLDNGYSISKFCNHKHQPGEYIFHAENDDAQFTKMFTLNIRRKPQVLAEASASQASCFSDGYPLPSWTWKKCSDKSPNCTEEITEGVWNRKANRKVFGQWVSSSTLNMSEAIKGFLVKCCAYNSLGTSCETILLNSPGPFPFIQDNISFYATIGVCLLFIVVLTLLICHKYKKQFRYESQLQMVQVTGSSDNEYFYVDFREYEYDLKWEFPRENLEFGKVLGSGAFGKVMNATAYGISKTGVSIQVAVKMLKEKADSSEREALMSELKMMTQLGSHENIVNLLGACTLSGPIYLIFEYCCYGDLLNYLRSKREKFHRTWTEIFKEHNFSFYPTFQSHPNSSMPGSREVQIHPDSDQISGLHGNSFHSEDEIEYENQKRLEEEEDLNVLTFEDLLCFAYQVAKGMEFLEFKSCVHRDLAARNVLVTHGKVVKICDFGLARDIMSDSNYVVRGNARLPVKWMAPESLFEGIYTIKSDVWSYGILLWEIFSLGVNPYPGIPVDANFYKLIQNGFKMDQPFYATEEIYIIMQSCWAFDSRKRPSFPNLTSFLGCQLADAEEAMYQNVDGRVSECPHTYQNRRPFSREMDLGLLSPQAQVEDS

NCI-H1975 [3] = assay: Antiproliferative activity against human NCI-H1975 cells incubated for 72 hrs by MTT assay; assay type: functional, cell-based; conditions: NCI-H1975, 72 h
[4] = molecular target: Tyrosine-protein kinase JAK2 (Homo sapiens) (UniProt O60674); assay: Inhibition of JAK2 (unknown origin) at 100 nM preincubated for 10 mins followed by substrate addition and measured after 60 mins in presence of ATP by ADP-Glo reagent based assay relative to control; conditions: time 70.0 min
Tyrosine-protein kinase JAK2 (Homo sapiens), sequence (O60674 whole entry): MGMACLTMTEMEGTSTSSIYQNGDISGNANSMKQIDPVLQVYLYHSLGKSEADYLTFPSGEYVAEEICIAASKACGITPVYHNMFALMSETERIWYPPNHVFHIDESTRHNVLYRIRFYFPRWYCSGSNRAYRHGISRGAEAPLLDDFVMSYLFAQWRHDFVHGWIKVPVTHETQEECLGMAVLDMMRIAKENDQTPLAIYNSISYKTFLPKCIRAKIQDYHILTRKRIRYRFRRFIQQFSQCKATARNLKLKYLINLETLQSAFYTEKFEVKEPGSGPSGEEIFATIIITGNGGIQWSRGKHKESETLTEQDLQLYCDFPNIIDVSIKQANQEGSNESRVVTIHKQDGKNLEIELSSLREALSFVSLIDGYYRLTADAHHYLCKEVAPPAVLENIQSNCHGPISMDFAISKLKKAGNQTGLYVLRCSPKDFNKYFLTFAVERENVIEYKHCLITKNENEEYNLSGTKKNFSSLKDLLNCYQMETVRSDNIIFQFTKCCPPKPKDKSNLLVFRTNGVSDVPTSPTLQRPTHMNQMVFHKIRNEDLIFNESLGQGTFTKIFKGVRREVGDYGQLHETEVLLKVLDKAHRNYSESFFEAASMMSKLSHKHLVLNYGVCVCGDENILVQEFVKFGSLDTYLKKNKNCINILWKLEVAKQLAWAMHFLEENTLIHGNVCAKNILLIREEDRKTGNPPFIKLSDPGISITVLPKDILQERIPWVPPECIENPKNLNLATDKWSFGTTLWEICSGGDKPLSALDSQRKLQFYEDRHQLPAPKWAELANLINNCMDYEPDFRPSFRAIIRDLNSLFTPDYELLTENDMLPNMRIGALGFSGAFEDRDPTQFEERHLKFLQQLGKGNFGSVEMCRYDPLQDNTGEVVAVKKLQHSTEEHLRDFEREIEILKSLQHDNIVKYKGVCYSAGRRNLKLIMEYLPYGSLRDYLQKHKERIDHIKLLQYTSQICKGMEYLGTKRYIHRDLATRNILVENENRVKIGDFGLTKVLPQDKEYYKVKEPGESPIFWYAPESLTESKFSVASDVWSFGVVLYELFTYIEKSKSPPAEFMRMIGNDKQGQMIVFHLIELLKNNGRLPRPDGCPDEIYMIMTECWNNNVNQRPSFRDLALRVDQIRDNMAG

CDK9/cyclin T1 = CDK9/cyclin T1 (Homo sapiens, UniProt P50750); assay: Inhibition of CDK9/Cyclin-T1 (unknown origin) preincubated for 10 mins followed by substrate addition and measured after 60 mins in presence of ATP by ADP-Glo reagent based assay; assay type: protein-complex assay
CDK9/cyclin T1, sequence (O60563 whole entry): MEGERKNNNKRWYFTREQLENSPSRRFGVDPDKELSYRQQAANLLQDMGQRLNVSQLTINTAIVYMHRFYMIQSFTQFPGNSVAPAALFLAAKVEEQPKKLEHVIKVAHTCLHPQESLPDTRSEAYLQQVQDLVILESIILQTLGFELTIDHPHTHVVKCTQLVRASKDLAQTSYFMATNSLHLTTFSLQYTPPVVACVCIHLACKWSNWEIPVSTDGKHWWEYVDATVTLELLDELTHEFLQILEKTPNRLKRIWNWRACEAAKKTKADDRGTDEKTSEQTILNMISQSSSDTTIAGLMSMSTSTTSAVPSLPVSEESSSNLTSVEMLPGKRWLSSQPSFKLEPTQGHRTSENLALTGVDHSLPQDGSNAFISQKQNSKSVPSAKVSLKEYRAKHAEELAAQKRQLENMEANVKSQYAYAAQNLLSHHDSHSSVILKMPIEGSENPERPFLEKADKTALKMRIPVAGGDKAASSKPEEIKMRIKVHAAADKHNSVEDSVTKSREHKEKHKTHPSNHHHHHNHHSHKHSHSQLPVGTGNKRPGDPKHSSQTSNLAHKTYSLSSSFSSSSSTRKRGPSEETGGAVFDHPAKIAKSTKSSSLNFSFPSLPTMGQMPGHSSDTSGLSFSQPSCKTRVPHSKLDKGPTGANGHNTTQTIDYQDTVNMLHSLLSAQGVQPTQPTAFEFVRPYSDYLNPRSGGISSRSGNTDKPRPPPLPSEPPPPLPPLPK
CDK9/cyclin T1, sequence (P50750 whole entry): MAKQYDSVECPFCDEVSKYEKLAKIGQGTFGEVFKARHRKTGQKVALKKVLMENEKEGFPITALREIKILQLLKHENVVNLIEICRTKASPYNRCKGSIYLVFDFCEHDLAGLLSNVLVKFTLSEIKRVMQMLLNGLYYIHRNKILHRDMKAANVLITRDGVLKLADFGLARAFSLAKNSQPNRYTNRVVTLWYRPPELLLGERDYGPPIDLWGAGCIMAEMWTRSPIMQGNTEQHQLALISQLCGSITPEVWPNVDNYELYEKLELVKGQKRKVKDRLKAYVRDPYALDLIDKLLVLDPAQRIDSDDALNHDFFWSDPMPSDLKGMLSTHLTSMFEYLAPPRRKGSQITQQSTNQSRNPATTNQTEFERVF

[5] = Downregulation of Mcl-1 in human NCI-H1975 cells at 500 nM relative to control; assay type: functional
[6] = molecular target: CDK2/Cyclin A2 (Homo sapiens) (UniProt P24941+P20248); assay: Inhibition of CDK2/Cyclin A2 (unknown origin) at 100 nM preincubated for 10 mins followed by substrate addition and measured after 60 mins in presence of ATP by ADP-Glo reagent based assay relative to control; assay type: protein-complex assay; conditions: time 70.0 min
[7] = molecular target: CDK9/cyclin T1 (Homo sapiens) (UniProt O60563+P50750); assay: Inhibition of CDK9/Cyclin-T1 (unknown origin) at 20 nM preincubated for 10 mins followed by substrate addition and measured after 60 mins in presence of ATP by ADP-Glo reagent based assay relative to control; assay type: protein-complex assay; conditions: time 70.0 min
[8] = Antiproliferative activity against human Osimertinib-resistant NCI-H1975 cell incubated for 72 hrs by MTT assay; assay type: functional, cell-based; conditions: NCI-H1975, 72 h
NCI-H1975 [9] = assay: Downregulation of Mcl-1 level in human Osimertinib-resistant NCI-H1975 cell at upto 0.5 uM measured after 8 hrs by Western blotting analysis; assay type: functional, cell-based
NCI-H1975 [10] = assay: Downregulation of Mcl-1 level in human NCI-H1975 cells measured after 8 hrs by Western blotting analysis; assay type: functional, cell-based; conditions: dose <= 0.5 µM
[11] = Induction of apoptosis in human Osimertinib-resistant NCI-H1975 cell assessed as necrotic cells at 125 nM measured after 16 hrs by Annexin V-FITC and PI staining based analysis (reference value: 0.50%); assay type: functional
[12] = Induction of apoptosis in human Osimertinib-resistant NCI-H1975 cell assessed as late apoptotic cells at 125 nM measured after 16 hrs by Annexin V-FITC and PI staining based analysis (Rvb =2.84%); assay type: functional
[13] = system: Osimertinib-resistant HCC827AR cell; assay: Downregulation of Mcl-1 level in human Osimertinib-resistant HCC827 cell at upto 0.5 uM measured after 8 hrs by Western blotting analysis; assay type: functional, cell-based
HCC827 [14] = assay: Downregulation of Mcl-1 level in human HCC827 cells measured after 8 hrs by Western blotting analysis; assay type: functional, cell-based; conditions: dose <= 0.5 µM
[15] = Induction of apoptosis in human Osimertinib-resistant NCI-H1975 cell assessed as viable cells at 125 nM measured after 16 hrs by Annexin V-FITC and PI staining based analysis (reference value: 94.9%); assay type: functional; conditions: read-out: Activity
[16] = Antiproliferative activity against human Osimertinib-resistant NCI-H1975 cell assessed as cell growth inhibition at 125 nM incubated for 72 hrs by MTT assay relative to control; assay type: functional; design: scale not given: the % may be the effect or the level left
[17] = Induction of apoptosis in human Osimertinib-resistant NCI-H1975 cell assessed as early apoptotic cells at 125 nM measured after 16 hrs by Annexin V-FITC and PI staining based analysis (Rvb =1.78%); assay type: functional
[18] = Induction of apoptosis in human Osimertinib-resistant NCI-H1975 cell assessed as viable cells at 2000 nM measured after 16 hrs by Annexin V-FITC and PI staining based analysis (reference value: 94.9%); assay type: functional; conditions: read-out: Activity
cells = conditions: Homo sapiens, Osimertinib-resistant HCC827AR cell, 72 h
NCI-H1975 [19] = assay: Downregulation of Mcl-1 level in human Osimertinib-resistant NCI-H1975 cell at 2 uM measured after 8 hrs by Western blotting analysis; assay type: functional, cell-based
[20] = Induction of apoptosis in human Osimertinib-resistant NCI-H1975 cell assessed as viable cells at 500 nM measured after 16 hrs by Annexin V-FITC and PI staining based analysis (reference value: 94.9%); assay type: functional; conditions: read-out: Activity
[21] = Induction of apoptosis in human Osimertinib-resistant NCI-H1975 cell assessed as early apoptotic cells at 2000 nM measured after 16 hrs by Annexin V-FITC and PI staining based analysis (reference value: 1.78%); assay type: functional
[22] = Induction of apoptosis in human Osimertinib-resistant NCI-H1975 cell assessed as late apoptotic cells at 2000 nM measured after 16 hrs by Annexin V-FITC and PI staining based analysis (reference value: 2.84%); assay type: functional
[23] = Induction of apoptosis in human Osimertinib-resistant NCI-H1975 cell assessed as late apoptotic cells at 500 nM measured after 16 hrs by Annexin V-FITC and PI staining based analysis (reference value: 2.84%); assay type: functional
[24] = Induction of apoptosis in human Osimertinib-resistant NCI-H1975 cell assessed as necrotic cells at 2000 nM measured after 16 hrs by Annexin V-FITC and PI staining based analysis (reference value: 0.50%); assay type: functional
[25] = Induction of apoptosis in human Osimertinib-resistant NCI-H1975 cell assessed as necrotic cells at 500 nM measured after 16 hrs by Annexin V-FITC and PI staining based analysis (reference value: 0.50%); assay type: functional
[26] = Induction of apoptosis in human Osimertinib-resistant NCI-H1975 cell assessed as early apoptotic cells at 500 nM measured after 16 hrs by Annexin V-FITC and PI staining based analysis (reference value: 1.78%); assay type: functional

| Structure (SMILES) | pIC50 (CDK2/Cyclin A2) | pIC50 (HCC827 [1]) | pIC50 (NCI-H1975 [3]) | pIC50 (CDK9/cyclin T1) | Activity [5] [%] | also measured |
| --- | --- | --- | --- | --- | --- | --- |
| O=C(NCCN1CCOCC1)c1ccc2cc1OCCOCCOc1cc(ccc1F)-c1nc(ncc1F)N2 | 8.00 | 7.28 | 7.27 | 8.68 | – | inhibition [2]: 68.7%; inhibition [4]: 71.4% |
| O=C(NCC1CCNCC1)c1ccc2cc1OCCCCOc1cc(ccc1F)-c1nc(ncc1F)N2 | 7.82 | 6.46 | 6.47 | 8.68 | 1.6 | – |
| CN1CCC(NC(=O)c2ccc3cc2OCCCCCCOc2cc(ccc2F)-c2nc(ncc2F)N3)CC1 | 7.51 | – | 6.87 | 8.49 | – | – |
| CN1CCN(CCNC(=O)c2ccc3cc2OCCCCCCOc2cc(ccc2F)-c2nc(ncc2F)N3)CC1 | 7.60 | – | 6.84 | 8.64 | – | – |
| O=C(NC1CCCNCC1)c1ccc2cc1OCCCCOc1cc(ccc1F)-c1nc(ncc1F)N2 (stereo unspecified) | 7.27 | 6.39 | 6.94 | 8.51 | 21.1 | – |
| O=C(NCCN1CCOCC1)c1ccc2cc1OCCCCOc1cc(ccc1F)-c1nc(ncc1F)N2 | 7.47 | 6.74 | 7.68 | 9.05 | 95.6 | inhibition [2]: 77.3%; inhibition [4]: 79.7% |
| O=C(c1ccc2cc1OCCCCOc1cc(ccc1F)-c1nc(ncc1F)N2)N1CCCNCC1 | – | 5.71 | 5.93 | – | -27 | inhibition [6]: 21.2%; inhibition [7]: 27% |
| O=C(c1ccc2cc1OCCCCOc1cc(ccc1F)-c1nc(ncc1F)N2)N1CCC(N2CCOCC2)C1 (stereo unspecified) | – | 5.29 | 5.73 | – | – | inhibition [6]: 11.7%; inhibition [7]: 27.6% |
| COc1cc(F)ccc1-c1ncnc(Nc2ccc(C(=O)NCCN(C)C)cc2)n1 | 7.62 | 3.47 | 3.59 | 8.51 | – | – |
| O=C(NCCN1CCOCC1)c1ccc2cc1OCCCCCOc1cc(ccc1F)-c1nc(ncc1F)N2 | 7.18 | 6.57 | 6.94 | 8.96 | 73.4 | inhibition [2]: 62.8%; inhibition [4]: 56.5% |
| O=C(NC1CCC(N2CCOCC2)CC1)c1ccc2cc1OCCCCCCOc1cc(ccc1F)-c1nc(ncc1F)N2 (stereo unspecified) | 6.15 | 6.38 | 6.09 | 8.70 | 64.6 | – |
| O=C(NC1CCOCC1)c1ccc2cc1OCCCCOc1cc(ccc1F)-c1nc(ncc1F)N2 | 7.02 | 6.74 | 6.55 | 8.55 | 99 | inhibition [2]: 60.9%; inhibition [4]: 73.2% |
| CN(C)CCNC(=O)c1ccc2cc1OCCCCOc1cc(ccc1F)-c1nc(ncc1F)N2 | 8.49 | 7.51 | 7.59 | 8.96 | 82.6 | – |
| O=C(NC1CCN(C2CCOCC2)CC1)c1ccc2cc1OCCCCCCOc1cc(ccc1F)-c1nc(ncc1F)N2 | 6.93 | 6.59 | 6.43 | 8.59 | 54.4 | – |
| O=C(c1ccc2cc1OCCCCOc1cc(ccc1F)-c1nc(ncc1F)N2)N1CCNCC1 | – | 5.61 | 5.98 | – | – | inhibition [6]: 32.9%; inhibition [7]: 45.7% |
| O=C(c1ccc2cc1OCCCCOc1cc(ccc1F)-c1nc(ncc1F)N2)N1CCC(N2CCOCC2)CC1 | – | 5.32 | 5.57 | – | -34 | inhibition [6]: 9.1%; inhibition [7]: 20.9% |
| C=CC(=O)Nc1cc(Nc2nccc(-c3cn(C)c4ccccc34)n2)c(OC)cc1N(C)CCN(C)C [OSIMERTINIB] | – | 7.24 | […] | – | – | pIC50 [8]: 5.33; Activity (NCI-H1975 [9]): inactive; Activity (NCI-H1975 [10]): Dose-Dependent Effect; Activity [11]: 3.25%; Activity [12]: 1.8%; Activity [13]: inactive; Activity (HCC827 [14]): Dose-Dependent Effect; viability at 0.125 µM [15]: 92.4%; Activity [16]: 10%; Activity [17]: 2.52% |
| COc1cc(F)ccc1-c1ncnc(Nc2cccc(C[S@](C)(=N)=O)c2)n1 [ATUVECICLIB] | – | – | – | – | – | pIC50 [8]: 5.97; viability at 2 µM [18]: 91.9%; pIC50 (cells): 6.00; Activity (NCI-H1975 [19]): Active; viability at 0.5 µM [20]: 91.3%; Activity [21]: 2.58%; Activity [22]: 3.66%; Activity [23]: 4.49%; Activity [24]: 1.84%; Activity [25]: 1.06%; Activity [26]: 3.16% |
| O=C(NCCN1CCOCC1)c1ccc2cc1COCCCCOCc1cc(ccc1F)-c1nc(ncc1F)N2 | 6.85 | – | 6.21 | 8.11 | – | – |
